# Data from patent publication US20110150767A1, “ALPHA-SUBSTITUTED AND ALPHA-UNSUBSTITUTED AROMATIC AMINO ACID DERIVATIVES AND COMPOSITIONS THEREOF FOR USE TO TREAT, DIAGNOSE, OR MONITOR A MEDICAL CONDITION” (priority 2009, published 2011).
# Legend:
# [1] = target: T1, human L-type amino acid transporter 1 (LAT1; S2-hLAT1 cells) (Homo sapiens, UniProt Q01650); test: Inhibition of L-[14C]leucine uptake in S2-LAT1 cells; format: cell-based; conditions: inhibition of 1.0 μM L-[14C]leucine uptake, 1.0 min, 37° C., NI = no inhibition at 100 μM
# T1 construct: expressed in transfected cells; host or cells: S2 cells (S2-hLAT1 / S2-LAT1); mammalian cell line described in Morimoto et al., J Pharmacol Sci 2008, 108, 505-516
# Method: (§1) The establishment and characterization of mammalian cell lines expressing human L-type amino acid transporterss (i.e. S2-hLAT1 and S2-hLAT2) has been previously described (Morimoto et al., Journal of Pharmacological Sciences, 2008, 108, 505-516).
# (§2) General test procedures are as follows: All test compounds were dissolved in dimethyl sulfoxide (DMSO) to prepare stock solutions at the concentrations of 0.05, 0.5, 5.0 and 50 mM; next, these stock solutions were used and diluted with uptake solution to make final test concentrations of 0.10, 1.00, 10.0 and 100 μM, respectively. Therefore, all compounds used for uptake experiment were in uptake solution containing 0.2% DMSO; experiments are performed in triplicate for each concentration. For control uptake, only DMSO was added into the uptake solution to a final concentration of 0.2%.
# (§3) S2-LAT1 and S2-LAT2 cells were seeded (1.3×10^5 cells/well) into 24-well plates and cultured at 33° C. (5% CO2) for 2-3 days until confluent (90%-100% confluence). Uptake experiments were performed at 37° C. The culture medium was removed and washed 3 times with uptake solution (37° C.; Hank's Na^+ free buffer consisting of 125 mM choline chloride, 4.8 mM KCl, 1.3 mM CaCl2, 1.2 mM MgCl2, 25.0 mM HEPES, and 5.0 mM Tris, pH 7.4, supplemented with D-glucose (5.6 mM). The cells were equilibrated in uptake solution (300 μL; 37° C.) for 12 min. The equilibrated solution was removed and uptake solution containing radio-labeled compound (1.0 μM L-[^14C] Leucine) with or without test compound (300 μL) was added to the cells (1.0 min). The test solution was removed and the cells washed 3 times with ice-cold uptake solution. The cells are then solubilized with 0.1N NaOH (0.5 mL) and transferred to scintillation vials. Liquid scintillation fluid (3.0 mL; aquasol-2) was added, mixed and substrate accumulation was measured by counting radioactivity via liquid scintillation counting (LSC; LSC6100, Aloka, Tokyo). The uptake value and % of inhibition were calculated to afford IC50 values.
# [2] = target: T2, human L-type amino acid transporter 2 (LAT2; S2-hLAT2 cells) (Homo sapiens, UniProt Q9UHI5); test: Inhibition of L-[14C]leucine uptake in S2-LAT2 cells; format: cell-based; conditions: inhibition of 1.0 μM L-[14C]leucine uptake, 1.0 min, 37° C., NI = no inhibition at 100 μM
# T2 construct: expressed in transfected cells; host or cells: S2 cells (S2-hLAT2 / S2-LAT2); mammalian cell line described in Morimoto et al., J Pharmacol Sci 2008, 108, 505-516
# T2 sequence (Q9UHI5 1-535): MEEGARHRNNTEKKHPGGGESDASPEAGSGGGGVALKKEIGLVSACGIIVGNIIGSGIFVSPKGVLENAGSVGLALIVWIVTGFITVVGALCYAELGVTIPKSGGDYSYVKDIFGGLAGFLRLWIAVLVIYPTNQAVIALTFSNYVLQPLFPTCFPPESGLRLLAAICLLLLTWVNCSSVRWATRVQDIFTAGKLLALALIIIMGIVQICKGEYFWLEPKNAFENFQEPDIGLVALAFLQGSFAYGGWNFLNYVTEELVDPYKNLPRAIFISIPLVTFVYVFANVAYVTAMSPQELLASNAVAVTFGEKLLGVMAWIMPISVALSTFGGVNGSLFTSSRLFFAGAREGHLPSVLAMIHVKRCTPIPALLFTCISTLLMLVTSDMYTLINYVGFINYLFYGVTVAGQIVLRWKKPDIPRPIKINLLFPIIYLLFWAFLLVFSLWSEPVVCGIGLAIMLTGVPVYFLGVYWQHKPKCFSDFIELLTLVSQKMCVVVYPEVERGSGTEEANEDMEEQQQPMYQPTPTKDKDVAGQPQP
# T2 sequence (P08195 1-529 partner): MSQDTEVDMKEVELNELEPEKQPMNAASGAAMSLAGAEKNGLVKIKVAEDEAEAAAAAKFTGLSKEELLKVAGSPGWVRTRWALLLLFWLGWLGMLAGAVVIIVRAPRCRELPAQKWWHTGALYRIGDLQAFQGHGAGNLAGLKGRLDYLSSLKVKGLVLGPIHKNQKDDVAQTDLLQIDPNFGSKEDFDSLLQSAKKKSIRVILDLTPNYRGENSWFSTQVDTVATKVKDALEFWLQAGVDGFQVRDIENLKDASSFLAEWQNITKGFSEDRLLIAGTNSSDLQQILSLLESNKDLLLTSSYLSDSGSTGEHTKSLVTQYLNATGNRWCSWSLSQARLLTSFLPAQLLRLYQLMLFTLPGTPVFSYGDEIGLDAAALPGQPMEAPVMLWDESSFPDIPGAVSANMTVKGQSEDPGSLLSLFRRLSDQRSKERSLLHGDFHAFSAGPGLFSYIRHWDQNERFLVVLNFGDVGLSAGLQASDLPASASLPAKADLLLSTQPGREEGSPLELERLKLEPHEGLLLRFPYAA
# Method: as §1, §2, §3
# T1 sequence (Q01650 whole entry, one chain of several): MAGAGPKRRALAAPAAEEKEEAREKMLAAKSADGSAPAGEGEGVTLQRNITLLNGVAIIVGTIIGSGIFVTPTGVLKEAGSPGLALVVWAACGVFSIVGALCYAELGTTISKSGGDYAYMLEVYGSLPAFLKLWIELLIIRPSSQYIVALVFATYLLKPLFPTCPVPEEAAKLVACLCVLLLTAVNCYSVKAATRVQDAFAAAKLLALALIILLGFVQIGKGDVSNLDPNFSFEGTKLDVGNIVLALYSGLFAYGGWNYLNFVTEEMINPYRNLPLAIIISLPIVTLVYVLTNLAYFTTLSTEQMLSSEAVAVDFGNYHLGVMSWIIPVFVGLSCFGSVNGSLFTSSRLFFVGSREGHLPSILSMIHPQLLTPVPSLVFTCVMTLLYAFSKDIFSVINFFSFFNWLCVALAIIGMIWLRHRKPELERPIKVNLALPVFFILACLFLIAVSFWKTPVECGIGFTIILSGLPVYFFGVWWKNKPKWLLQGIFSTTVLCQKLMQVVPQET
SMILES,IC50 [1],IC50 [2]
CC(N)(Cc1cc(Cl)c(OCc2ccc3c(c2)OCO3)c(Cl)c1)C(=O)O (racemic) [compound 144],> 100 µM,> 100 µM
CC(N)(Cc1cc(Cl)c(OCc2ccc(C(F)(F)F)cc2)c(Cl)c1)C(=O)O (racemic) [compound 145],–,> 100 µM
COc1ccc(COc2c(Cl)cc(CC(C)(N)C(=O)O)cc2Cl)cc1 (racemic) [compound 146],6.7 µM,16.4 µM
COc1cccc(COc2c(Cl)cc(CC(C)(N)C(=O)O)cc2Cl)c1 (racemic) [compound 147],> 100 µM,> 100 µM
COc1ccccc1COc1c(Cl)cc(CC(C)(N)C(=O)O)cc1Cl (racemic) [compound 148],> 100 µM,> 100 µM
COc1cccc(COc2c(Cl)cc(CC(C)(N)C(=O)O)cc2Cl)c1OC (racemic) [compound 149],> 100 µM,> 100 µM
COc1ccc(COc2c(Cl)cc(CC(C)(N)C(=O)O)cc2Cl)cc1OC (racemic) [compound 150],> 100 µM,> 100 µM
COc1cc(COc2c(Cl)cc(CC(C)(N)C(=O)O)cc2Cl)cc(OC)c1OC (racemic) [compound 151],> 100 µM,> 100 µM
CC(N)(Cc1cc(Cl)c(OCc2ccncc2)c(Cl)c1)C(=O)O (racemic) [compound 152],> 100 µM,> 100 µM
COc1ccc(COc2c(I)cc(C[C@H](N)C(=O)O)cc2I)c(OC)c1 [compound 41],5 µM,> 100 µM
COc1ccc(COc2c(I)cc(C[C@H](N)C(=O)O)cc2I)c(OC)c1OC [compound 43],23.6 µM,> 100 µM
COc1ccc(COc2c(I)cc(C[C@H](N)C(=O)O)cc2I)c(C)c1C [compound 44],7.7 µM,> 100 µM
COc1cc(COc2c(I)cc(C[C@H](N)C(=O)O)cc2I)cc(OC)c1OC [compound 45],15 µM,> 100 µM
CCOc1ccc(COc2c(I)cc(C[C@H](N)C(=O)O)cc2I)c(OCC)c1 [compound 48],17.2 µM,> 100 µM
CCOc1ccc(COc2c(I)cc(C[C@H](N)C(=O)O)cc2I)cc1OCC [compound 49],5.5 µM,> 100 µM
COc1ccc(COc2c(Cl)cc(C[C@H](N)C(=O)O)cc2Cl)cc1OC [compound 129],17.8 µM,> 100 µM
COc1ccc(COc2c(Cl)cc(C[C@H](N)C(=O)O)cc2Cl)cc1[N+](=O)[O-] [compound 131],8.4 µM,126 µM
COc1ccc(COc2c(Cl)cc(C[C@H](N)C(=O)O)cc2Cl)c(OC)c1OC [compound 136],8.1 µM,> 100 µM
COc1cc(OC)c(OC)cc1COc1c(Cl)cc(C[C@H](N)C(=O)O)cc1Cl [compound 138],29.2 µM,> 100 µM
CCOc1cc(COc2c(Cl)cc(C[C@H](N)C(=O)O)cc2Cl)cc(OCC)c1OCC [compound 139],1.2 µM,> 100 µM

# Next, values leading:
IC50 [1],IC50 [2],SMILES
> 100 µM,> 100 µM,N[C@@H](Cc1cc(I)c(OCCc2ccc(OC(F)(F)F)cc2)c(I)c1)C(=O)O [compound 33]
11.9 µM,47.9 µM,N[C@@H](Cc1cc(I)c(OCC(=O)c2ccccc2)c(I)c1)C(=O)O [compound 34]
8.8 µM,> 100 µM,COC(COc1c(I)cc(C[C@H](N)C(=O)O)cc1I)c1ccccc1 (stereo partly shown) [compound 35]
28.2 µM,> 100 µM,N[C@@H](Cc1cc(I)c(OCCc2ccc([N+](=O)[O-])cc2)c(I)c1)C(=O)O [compound 36]
11.5 µM,8.2 µM,N[C@@H](Cc1cc(I)c(OCc2ccc([N+](=O)[O-])cc2)c(I)c1)C(=O)O [compound 37]
17.7 µM,> 100 µM,COc1cc(Cl)ccc1COc1c(I)cc(C[C@H](N)C(=O)O)cc1I [compound 42]
24.1 µM,> 100 µM,N[C@@H](Cc1cc(I)c(OCc2ccc3c(c2)OCO3)c(I)c1)C(=O)O [compound 50]
10.4 µM,29.5 µM,N[C@@H](Cc1cc(I)c(OCc2ccc(Cl)cc2)c(I)c1)C(=O)O [compound 51]
6.8 µM,> 100 µM,COc1ccc(CCOc2c(Br)cc(C[C@H](N)C(=O)O)cc2Br)cc1 [compound 52]
6.3 µM,> 100 µM,COc1cccc(CCOc2c(Br)cc(C[C@H](N)C(=O)O)cc2Br)c1 [compound 53]
5.4 µM,> 100 µM,COc1ccccc1CCOc1c(Br)cc(C[C@H](N)C(=O)O)cc1Br [compound 54]
10.2 µM,> 100 µM,COc1ccccc1COc1c(Br)cc(C[C@H](N)C(=O)O)cc1Br [compound 55]
67.1 µM,> 100 µM,COc1cccc(COc2c(Br)cc(C[C@H](N)C(=O)O)cc2Br)c1 [compound 56]
16.4 µM,86.5 µM,COc1ccc(COc2c(Br)cc(C[C@H](N)C(=O)O)cc2Br)cc1 [compound 57]
43.2 µM,> 100 µM,N[C@@H](Cc1cc(Br)c(OCCc2ccc(C(F)(F)F)cc2)c(Br)c1)C(=O)O [compound 58]
31.8 µM,> 100 µM,N[C@@H](Cc1cc(Br)c(OCCc2cccc(C(F)(F)F)c2)c(Br)c1)C(=O)O [compound 59]
> 100 µM,> 100 µM,N[C@@H](Cc1cc(Br)c(OCCc2ccccc2C(F)(F)F)c(Br)c1)C(=O)O [compound 60]
> 100 µM,> 100 µM,N[C@@H](Cc1cc(Br)c(OCc2ccccc2C(F)(F)F)c(Br)c1)C(=O)O [compound 61]
50.7 µM,> 100 µM,N[C@@H](Cc1cc(Cl)c(OCCc2ccccc2)c(Cl)c1)C(=O)O [compound 122]
4.2 µM,27.3 µM,N[C@@H](Cc1cc(Cl)c(OCc2ccc3c(c2)OCO3)c(Cl)c1)C(=O)O [compound 130]
28.2 µM,> 100 µM,COc1cccc(COc2c(Cl)cc(C[C@H](N)C(=O)O)cc2Cl)c1OC [compound 132]
0.8 µM,5.5 µM,COc1ccc(COc2c(Cl)cc(C[C@H](N)C(=O)O)cc2Cl)c(OC)c1 [compound 133]
4.4 µM,> 100 µM,COc1cc(Cl)ccc1COc1c(Cl)cc(C[C@H](N)C(=O)O)cc1Cl [compound 134]
2.4 µM,32.5 µM,COc1ccc(COc2c(Cl)cc(C[C@H](N)C(=O)O)cc2Cl)c(OC)n1 [compound 135]
3.5 µM,> 100 µM,COc1ccc(COc2c(Cl)cc(C[C@H](N)C(=O)O)cc2Cl)c(C)c1C [compound 137]
2.2 µM,> 100 µM,CCOc1ccc(COc2c(Cl)cc(C[C@H](N)C(=O)O)cc2Cl)c(OCC)c1 [compound 140]
